# Where two headings read alike, the source gives them in different places.
# How the values were obtained:
# [1] = system: CD1 Charles River female mice with unilateral lesion of the striatum; experiment: Rotational behaviour after unilateral 6-hydroxydopamine lesion of the striatum, intraperitoneal; format: in vivo, mouse; details: for Rotational behaviour, intraperitoneal administration (change of rotations vs control): Table 8, 1 hour after administration; for Rotational behaviour of mice (intraperitoneal administration): Table 9, decrease: minus sign printed at end of the dose line, * p < 0.01, Student test
# Experimental: CD1 Charles River female mice weighing from 20 to 24 g first undergo unilateral lesion of the striatum by the stereotaxic injection of 6-hydroxydopamine at a dose of 8 μg per animal. One week after this operation, the product is administered intraperitoneally to groups of 7 mice. The number of rotations is evaluated over 2 minutes, 1 hour after the administration of the product. Rotations on the same side as the lesion are counted as positive and those on the opposite side are counted as negative.
# [2] = system: reserpine-induced ptosis in CD1 (Charles River) female mice; experiment: Antagonism of reserpine-induced ptosis, intraperitoneal; format: in vivo; details: Mus musculus, ip, i.p., reserpine 2 mg/kg i.v., read 1 hour after reserpine
# Experimental: ANTAGONISM OF RESERPINE-INDUCED PTOSIS
# This test, which is described by GOURET (Journal de pharmacologie Paris 1973, 4 (1), 105-128), was carried out on CD1 (Charles River) female mice weighing 20 g plus or minus 1 g. Reserpine causes ptosis 1 hour after its intravenous administration; certain antidepressants oppose this ptosis.
# The following protocol was selected:
# The substances to be studied were administered intraperitoneally. The reserpine is administered intravenously at the same time, at a dose of 2 mg/kg.
# [3] = system: CD1 (Charles River) female mice; experiment: Despair behaviour (Porsolt forced-swim immobility), intraperitoneal; format: in vivo, mouse; details: Table 8, 1 hour before test, ++ significant (Student test)
# Experimental: The principle of this test is as follows: when a mouse is placed in a narrow vessel filled with water, it struggles and then, after 2 to 4 minutes, it becomes immobile and floats on its abdomen, with its back hunched and its back paws tucked under the body, and it only makes the few movements necessary to keep its head above the water. This is the so-called despair reaction. Certain psychotropic drugs, in particular antidepressants, lengthen the time for which the mouse struggles. The following protocol was selected: The products to be studied were administered intraperitoneally 1 hour before the test. For the test, the animals are placed in a narrow vessel (10×10×10 cm) filled with water to a height of 6 cm, the temperature being 24° C. plus or minus 2° C. The animals are left in the water for 6 minutes and the time for which the animal remains immobile between the 2nd and 6th minutes is measured. The activity of the substance is the greater, the shorter this time. Each substance was studied on a batch of 10 mice. The results are the average of at least two experiments.
# [4] = in vivo; format: in vivo; details: mouse, in vivo, ip; Table 9; i.p.; mortality noted for 24 hours; read-out: Toxicity, intraperitoneal administration, LD50
# Experimental: (§1) The products to be studied were administered intraperitoneally in increasing doses to batches of 10 mice.
# (§2) The 50% lethal dose, that is to say the dose causing the […] of 50% of the animals studied, is determined from the results obtained for each of the products studied.
# [5] = system: mice; experiment: in vivo; format: in vivo; details: i.p., mortality noted for 24 hours
# Experimental: as §1, §2
# [6] = Table 8, read-out: Reserpine-induced ptosis, intraperitoneal administration, ED50
# [7] = Table 9, read-out: Test for the antagonism of reserpine-induced ptosis, intraperitoneal administration, ED50
# [8] = 2 mg/kg i.p., ++ significant (Student test)
SMILES,"Rotational behaviour, intraperitoneal administration (change of rotations vs control) ([1]; 3 mg/kg i.p., n.s.: not significant) [%]","ED50 [2, 6] [mg/kg]","Despair behaviour, intraperitoneal administration (change of immobility time) ([3]; 10 mg/kg i.p.) [%]",Rotational behaviour of mice (intraperitoneal administration) ([1]; 0.5 mg/kg i.p.) [%],Rotational behaviour of mice (intraperitoneal administration) ([1]; 2 mg/kg i.p.) [%],"ED50 [2, 7] [mg/kg]",LD50 at 24 h [4] [mg/kg],"Rotational behaviour, intraperitoneal administration (change of rotations vs control) ([1]; 0.1 mg/kg i.p., ++ significant (Student test)) [%]","Rotational behaviour, intraperitoneal administration (change of rotations vs control) [1, 8] [%]","Despair behaviour, intraperitoneal administration (change of immobility time) ([3]; 5 mg/kg i.p.) [%]","Rotational behaviour, intraperitoneal administration (change of rotations vs control) ([1]; 0.125 mg/kg i.p., ++ significant (Student test)) [%]","Toxicity, intraperitoneal administration, LD50 ([5]; Table 8) [mg/kg]","Toxicity, intraperitoneal administration, LD50 ([5]; Table 9) [mg/kg]"
CN(C)CCCN1c2ccccc2CCc2ccccc21 [iminaprine],-6,2.4,-38,,,,,,,,,,
N#Cc1cc(-c2ccsc2)nnc1NCCN1CCOCC1 [SR 95 274 A],,,,-60,-82,2.6,> 300,,,,,,
"Cl.Cl.N#Cc1cc(-c2ccccc2)nnc1NCCN1CCOCC1 [SR 95191, 3-(2-Morpholinoethylamino)-4-cyano-6-phenylpyridazine dihydrochloride]",,3.9,,,,,,-60,-107,-26,,,
Cc1cc(-c2ccccc2)nnc1NCCN1CCOCC1 [Minaprine],,5,,,-82,5,,,-82,-31,-53,63,63

# Reference: US4565814A, “Pyridazine derivatives having a psychotropic action and compositions” (priority 1983, dated 1986)
